{"source": "patent US12419961B2", "about": "(CNPharm Co., Ltd., priority 2021, dated 2025)", "key": {"[1]": {"tested_on": "PANC-1 pancreatic carcinoma tumors", "experiment": "anticancer efficacy in mouse xenograft model (tumor growth)", "assay_type": "in vivo, BALB/c mice", "protocol": "(§1) Normally, non-treated group is injected with saline (NaCl solution) in anti-cancer efficacy study."}, "pancreatic cancer": {"tested_on": "pancreatic cancer", "conditions": "pancreatic cancer patients, cited from earlier work"}, "L929": {"tested_on": "L929", "experiment": "cell viability assay on L929 normal cell line", "assay_type": "cell-based", "conditions": "FIG. 5B; normal mouse fibroblast cell line"}, "[2]": {"experiment": "weight monitoring in mouse xenograft model", "assay_type": "in vivo, BALB/c mice", "conditions": "FIG. 6B; PANC-1 model; dose: docetaxel standard, 20 mg/kg", "protocol": "as §1"}}, "data": [{"compound": "docetaxel-aconitic anhydride conjugate [A3Tx]", "values": [{"measurement": "tumor growth (mean tumor volume)", "setting": "[1]; FIG. 6A, PANC-1 model, dose: docetaxel standard, 20 mg/kg, P<0.01 vs negative control", "result": "significant inhibition in tumor growth"}, {"measurement": "tumor growth (mean tumor volume)", "setting": "[1]; FIG. 6A, PANC-1 model, dose: docetaxel standard, 20 mg/kg, P<0.01 vs negative control, listed as A3TX", "result": "significantly delays tumor growth"}]}, {"compound": "Nc1ccn([C@@H]2O[C@H](CO)[C@@H](O)C2(F)F)c(=O)n1", "note": "[gemcitabine]", "values": [{"measurement": "survival rate, gemcitabine compared to 5-FU", "setting": "pancreatic cancer", "result": 5.65, "unit": "months"}]}, {"compound": "O=c1[nH]cc(F)c(=O)[nH]1", "note": "[5-FU, 5-fluorouracil]", "values": [{"measurement": "survival rate, gemcitabine compared to 5-FU", "setting": "pancreatic cancer", "result": 4.41, "unit": "months"}, {"measurement": "median overall survival rate compared to supportive care", "setting": "pancreatic cancer; supportive care 2.5 months", "result": 6, "unit": "moths"}]}, {"compound": "CC(=O)O[C@@]12CO[C@@H]1C[C@H](O)[C@@]1(C)C(=O)[C@H](O)C3=C(C)[C@@H](OC(=O)[C@H](O)[C@@H](NC(=O)OC(C)(C)C)c4ccccc4)C[C@@](O)([C@@H](OC(=O)c4ccccc4)[C@H]21)C3(C)C", "note": "[DTX, docetaxel]", "values": [{"measurement": "cytotoxicity toward normal cell line L929", "setting": "L929", "result": "low cytotoxicity"}, {"measurement": "body weight loss", "setting": "[2]", "result": "significant body weight loss was observed"}, {"measurement": "tumor growth (mean tumor volume)", "setting": "[1]; FIG. 6A; PANC-1 model; dose: docetaxel standard, 20 mg/kg; P<0.01 vs negative control", "result": "significant inhibition in tumor growth"}]}]}
